Measured values as given in US8119616B2, “Formulation of quinazoline based EGFR inhibitors containing a zinc binding moiety” (Curis, Inc., priority 2007, dated 2012).
Read-outs that look alike come from different tables or passages of the source.

How the values were obtained:
[1] = target: T1, human EGFR (Homo sapiens, UniProt P00533); assay: HTScan EGF Receptor Kinase assay; type: biochemical; details: FIG. 1
T1 construct: human EGFR (His672-Ala1210); purchased Cell Signaling Technologies; host or cells: baculovirus expression system
Procedure: The ability of compounds to inhibit receptor kinase (EGFR) activity was assayed using HTScan™ EGF Receptor Kinase Assay Kits (Cell Signaling Technologies, Danvers, Mass.). […] The protein was purified by one-step affinity chromatography using glutathione-agarose.
Immediately transfer enzyme from −80° C. to ice. Allowed enzyme to thaw on ice. […] Returned immediately to ice. […] Incubated reaction plate at room temperature for 30 minutes. […] Added 100 μl/well primary antibody. Incubated at room temperature for 60 minutes. […] Added 100 μl/well diluted antibody. Incubated at room temperature for 30 minutes. […] Incubated at room temperature for 5 minutes.

[2] = system: A549 NSCLC; assay: A549 NSCLC Xenograft model; type: in vivo, mice; details: compared with vehicle or control
Procedure: A representative protocol for the in vivo experiment is as followed:
1-10×10^6 human cancer cells were implanted subcutaneously to the athymic (nu/nu) mice. When the tumors reached about 100 mm^3 in volume, the mice were treated with the compound by tail vein infusion. Routinely 5 groups (8-12 mice per group) are needed for a typical efficacy study, including one negative control, one positive control, and three testing groups for 3 dose levels of the same compound. Usually a 7-7-5 (on-off-on) regimen was used for one typical study. The tumor size was measured with an electronic caliper and body weight measured with a scale twice weekly. The tumors were removed from euthanized mice at the end of the study. One half of each tumor was frozen in dry ice and stored at −80° C. for PK or Western blot analysis. The other half was fixed with formalin. The fixed tissues were processed, embedded in paraffin and sectioned for immunohistochemistry staining. Protocol for Radioisotope assay for HER2

[3] = male, CD-1, mouse, in vivo, ip, 7 days
Procedure: 7-day-multiple dosing MTD in mice • a. CD-1 mice, male, 24-26 gram • b. Dosing at 0, 50, 100, 200 mg/kg/d ip • c. 6 mice per group • d. Blood and organs will be collected 2 hr after last dosing on Day 7 for hematology
(§4) Stock solution is diluted with 30% CAPTISOL before use.

[4] = male, CD-1, mouse, in vivo, iv, 9 day
Procedure: Single dosing MTD in mice • a. CD-1 mice, male, 24-26 gram • b. Dosing at 0, 50, 100, 200, 400 mg/kg, iv infusion 2 min • c. 8 mice per group
as §4

[5] = both, Sprague Dawley, rat, in vivo, iv, 8 days
Procedure: Single dosing MTD in rats • a. Sprague Dawley, male and female, 240-260 gram • b. Dosing at 0, 25, 50, 100, 200 mg/kg, iv infusion 5 min • c. 6 rats per group (3 male and 3 female)
as §4

[6] = system: Colon_HCT116; assay: Cell proliferation assay (ATPlite); type: cell-based; details: 72 hours, 0.5% fetal bovine serum
Procedure: (§1) A representative number of compounds were assayed against several different cell lines using the cell proliferation assay:
(§2) Cell Proliferation Assay:
(§3) Cancer cell lines were plated at 5,000 to 10,000 per well in 96-well flatted bottomed plates with various concentration of compounds. The cells were incubated with compounds for 72 hours in the presence of 0.5% of fetal bovine serum. Growth inhibition was accessed by adenosine triphosphate (ATP) content assay using Perkin Elmer ATPlite kit. ATPlite is an ATP monitoring system based on firefly luciferase. Briefly, 25 μl of mammalian cell lysis solution was added to 50 μl of phenol red-free culture medium per well to lyse the cells and stabilize the ATP. 25 μl of substrate solution was then added to the well and subsequently the luminescence was measured.

[7] = system: Lung_H292; assay: Cell proliferation assay (ATPlite); type: cell-based; details: 72 hours, 0.5% fetal bovine serum
Procedure: as §1, §2, §3

[8] = system: Lung_H460; assay: Cell proliferation assay (ATPlite); type: cell-based; details: 72 hours, 0.5% fetal bovine serum
Procedure: as §1, §2, §3

[9] = system: Breast_MDAMB468; assay: Cell proliferation assay (ATPlite); type: cell-based; details: 72 hours, 0.5% fetal bovine serum
Procedure: as §1, §2, §3

[10] = system: Breast_SkBr3; assay: Cell proliferation assay (ATPlite); type: cell-based; details: 72 hours, 0.5% fetal bovine serum
Procedure: as §1, §2, §3

[11] = system: Pancreas_CFPAC; assay: Cell proliferation assay (ATPlite); type: cell-based; details: 72 hours, 0.5% fetal bovine serum
Procedure: as §1, §2, §3

[12] = system: Pancreas_Capan1; assay: Cell proliferation assay (ATPlite); type: cell-based; details: 72 hours, 0.5% fetal bovine serum
Procedure: as §1, §2, §3

[13] = system: Pancreas_PANC1; assay: Cell proliferation assay (ATPlite); type: cell-based; details: 72 hours, 0.5% fetal bovine serum
Procedure: as §1, §2, §3

[14] = system: Prostate_PC3; assay: Cell proliferation assay (ATPlite); type: cell-based; details: 72 hours, 0.5% fetal bovine serum
Procedure: as §1, §2, §3

[15] = system: Lung_H358; assay: Cell proliferation assay (ATPlite); type: cell-based; details: 72 hours, 0.5% fetal bovine serum
Procedure: as §1, §2, §3

[16] = system: Pancreas_HPAC; assay: Cell proliferation assay (ATPlite); type: cell-based; details: 72 hours, 0.5% fetal bovine serum
Procedure: as §1, §2, §3

[17] = system: Pancreas_MiaPaCa2; assay: Cell proliferation assay (ATPlite); type: cell-based; details: 72 hours, 0.5% fetal bovine serum
Procedure: as §1, §2, §3

[18] = system: Breast_MCF7; assay: Cell proliferation assay (ATPlite); type: cell-based; details: 72 hours, 0.5% fetal bovine serum
Procedure: as §1, §2, §3

[19] = system: Pancreas_BxPC3; assay: Cell proliferation assay (ATPlite); type: cell-based; details: 72 hours, 0.5% fetal bovine serum
Procedure: as §1, §2, §3

[20] = system: Epidermoid_A431; assay: Cell proliferation assay (ATPlite); type: cell-based; details: 72 hours, 0.5% fetal bovine serum
Procedure: as §1, §2, §3

[21] = system: Lung_H2122; assay: Cell proliferation assay (ATPlite); type: cell-based; details: 72 hours, 0.5% fetal bovine serum
Procedure: as §1, §2, §3

[22] = system: Prostate_22RV1; assay: Cell proliferation assay (ATPlite); type: cell-based; details: 72 hours, 0.5% fetal bovine serum
Procedure: as §1, §2, §3

[23] = system: HDAC; assay: Ac-H4 and Ac-H3 accumulation in MDA-MB-468 breast cancer cell line; type: cell-based; details: FIG. 2
[24] = system: HCT-116 (colon) and SKBr3 (breast) cancer cells; assay: Induction of apoptosis (Caspase 3&7 activity); type: cell-based; details: HCT-116 and SKBr3, 24 hours
[25] = both, Sprague Dawley, rat, in vivo, iv, 7 days
Procedure: 7-day multiple dosing MTD in rats • a. Sprague Dawley, male and female, 220-250 gram • b. Dose, 25, 50, 100, 200 mg/kg/d) iv infusion 5 min • c. 6 per group (3 male and 3 female) • d. Blood and organs will be collected 2 hr after last dosing on Day 7 for hematology Compound Preparation
as §4

[26] = system: various cancer cell lines; assay: Anti-proliferative activity in various cancer cell lines (Table D, FIG. 3); type: cell-based; details: five major types of cancer (lung, breast, prostate, colon, and pancreas)
Procedure: as §2, §3
Table D illustrates the potency of compounds of the invention.

T1 sequence (P00533 672-1210): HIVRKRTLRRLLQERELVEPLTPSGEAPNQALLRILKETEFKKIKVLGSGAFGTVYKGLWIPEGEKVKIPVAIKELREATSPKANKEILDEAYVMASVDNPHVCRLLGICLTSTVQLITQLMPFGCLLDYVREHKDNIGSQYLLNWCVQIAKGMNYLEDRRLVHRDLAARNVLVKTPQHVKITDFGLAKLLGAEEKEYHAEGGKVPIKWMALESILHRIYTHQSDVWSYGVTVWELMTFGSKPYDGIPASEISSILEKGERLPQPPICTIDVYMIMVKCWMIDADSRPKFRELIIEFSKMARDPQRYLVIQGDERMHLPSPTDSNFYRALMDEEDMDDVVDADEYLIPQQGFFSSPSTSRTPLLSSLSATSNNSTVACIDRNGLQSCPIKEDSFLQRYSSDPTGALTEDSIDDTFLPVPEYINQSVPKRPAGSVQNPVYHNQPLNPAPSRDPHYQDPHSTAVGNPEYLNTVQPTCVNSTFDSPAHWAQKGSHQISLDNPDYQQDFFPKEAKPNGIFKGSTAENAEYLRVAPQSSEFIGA

C#Cc1cccc(Nc2ncnc3cc(OC)c(OCCCCCCC(=O)NO)cc23)c1 [Compound 12, 7-(4-(3-ethynylphenylamino)-7-methoxyquinazolin-6-yloxy)-N-hydroxyheptanamide]
activity in EFGR enzyme assay compared with erlotinib and SAHA [1]: more active than erlotinib and SAHA
effect on tumor size / tumor growth [2]: attenuated tumor growth
dose that did not result in a significant change in body weight [3]: up to 100 mg/kg
dose that did not result in a significant change in body weight [4]: up to 200 mg/kg
dose that did not result in a significant change in body weight [5]: up to 200 mg/kg
IC50 [6]: 0.1 to 1 µM
IC50 [7]: < 0.1 µM
IC50 [8]: 0.1 to 1 µM
IC50 [9]: < 0.1 µM
IC50 [10]: 0.1 to 1 µM
IC50 [11]: 0.1 to 1 µM
IC50 [12]: 0.1 to 1 µM
IC50 [13]: 0.1 to 1 µM
IC50 [14]: 0.1 to 1 µM
IC50 [15]: 0.1 to 1 µM
IC50 [16]: 1 to 10 µM
IC50 [17]: 0.1 to 1 µM
IC50 [18]: < 0.1 µM
IC50 [19]: < 0.1 µM
IC50 [20]: 0.1 to 1 µM
IC50 [21]: 0.1 to 1 µM
IC50 [22]: 0.1 to 1 µM
inhibition of histone acetylation compared with SAHA [23]: improvement in inhibition
cell apoptosis as measured by increased Caspase 3&7 activity [24]: 4-11 times
dose that did not result in a significant change in body weight or food consumption [25]: up to 100 mg/kg
response of cell lines compared with a combination of erlotinib and SAHA [26]: responded better to compound 12 than a combination of erlotinib and SAHA
